The test system of the data set is HEK 298 cell line. As to the kind of experiment: MTT viability of HEK cells treated with nanobowls pre-loaded with siRNA and dexamethasone. The conditions noted are these: normalized to untreated control.

Molecules are shown by their SMILES.

With `C[C@@H]1C[C@H]2[C@@H]3CCC4=CC(=O)C=C[C@]4(C)[C@@]3(F)[C@@H](O)C[C@]2(C)[C@@]1(O)C(=O)CO` [dexamethasone], the “cell viability (MTT)” value is recorded as “cell viability decreased”.
